SMILES strings stand for the structures.

Here are results for 24 compounds from US8138168B1 (Takeda Pharmaceutical Company Limited, priority 2007, dated 2012).

One assay concerns the target T1, Recombinant human renin (Homo sapiens, UniProt P00797).
T1 construct: isolate the active form (residues 67-406); made in house; host or cells: FreeStyle 293-F cells (transient expression of pcDNA3.1(+)/hREN)
T1 sequence (P00797 67-406): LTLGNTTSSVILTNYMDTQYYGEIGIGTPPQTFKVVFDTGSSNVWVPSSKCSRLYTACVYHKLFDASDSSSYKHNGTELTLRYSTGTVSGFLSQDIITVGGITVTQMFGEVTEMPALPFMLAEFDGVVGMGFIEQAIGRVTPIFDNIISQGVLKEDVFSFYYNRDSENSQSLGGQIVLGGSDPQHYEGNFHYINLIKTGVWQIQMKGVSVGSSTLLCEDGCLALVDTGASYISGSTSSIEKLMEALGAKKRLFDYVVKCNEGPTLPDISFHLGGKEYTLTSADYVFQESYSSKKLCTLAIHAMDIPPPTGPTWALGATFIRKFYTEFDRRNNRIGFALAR
Description: In vitro enzymatic activity assay of renin inhibitors (fluorogenic peptide substrate). The class given is biochemical.
Conditions: not given
The method, boiled down: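 Recombinant human renin (3 nM final) pre-incubated 10 min at 37 °C with compounds in pH 7.4 Hepes/EDTA/DTT/0.1 mg/mL BSA/Brij35 buffer (optionally plus 2% BSA), 5% DMSO final; fluorogenic QXL520/HiLyteFluo488 peptide substrate added.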
Turning to `COCCCn1c([C@@H]2CCCN(C(=O)[C@@H]3CN(C(=O)Oc4ccccc4Cl)C[C@H]3N)C2)nc2ccccc21` [Compound 390, (3S,4R)-2-chlorophenyl 3-amino-4-((R)-3-(1-(3-methoxypropyl)-1H-benzo[d]imidazol-2-yl)piperidine-1-carbonyl)pyrrolidine-1-carboxylate], the IC50 is greater than 1 µM.
The same measure, in the same setting: the value for `COCCCn1c([C@@H]2CCCN(C(=O)[C@@H]3CN(C(=O)Oc4ccc(Cl)cc4)C[C@H]3N)C2)nc2ccccc21` [Compound 407, (3S,4R)-4-chlorophenyl 3-amino-4-((R)-3-(1-(3-methoxypropyl)-1H-benzo[d]imidazol-2-yl)piperidine-1-carbonyl)pyrrolidine-1-carboxylate] was greater than 1 µM.
On to `COCCCn1c([C@@H]2CCCN(C(=O)[C@@H]3CN(C(=O)Oc4cccc(C(F)(F)F)c4)C[C@H]3N)C2)nc2ccccc21` [Compound 408, (3S,4R)-3-(trifluoromethyl)phenyl 3-amino-4-((R)-3-(1-(3-methoxypropyl)-1H-benzo[d]imidazol-2-yl)piperidine-1-carbonyl)pyrrolidine-1-carboxylate], for which the IC50 is greater than 1 µM.

The assay is the same for the next values; noted with them: read-out: IC50 of Exemplified Compounds Against Renin.
Take `COCCCn1c([C@@H]2CCCN(C(=O)[C@@H]3CN(C(=O)c4ccccc4)C[C@H]3N)C2)nc2ccccc21` [Compound 385, ((3R,4S)-4-amino-1-benzoylpyrrolidin-3-yl)((R)-3-(1-(3-methoxypropyl)-1H-benzo[d]imidazol-2-yl)piperidin-1-yl)methanone]: the IC50 was greater than 1 µM.
Turning to `COCCCn1c([C@@H]2CCCN(C(=O)[C@@H]3CN(C(=O)NC4CCCCC4)C[C@H]3N)C2)nc2ccccc21` [Compound 386, (3S,4R)-3-amino-N-cyclohexyl-4-((R)-3-(1-(3-methoxypropyl)-1H-benzo[d]imidazol-2-yl)piperidine-1-carbonyl)pyrrolidine-1-carboxamide], the IC50 was greater than 1 µM.
Regarding `COCCCn1c([C@@H]2CCCN(C(=O)[C@@H]3CN(C(=O)c4ccccc4OC)C[C@H]3N)C2)nc2ccccc21` [Compound 387, ((3R,4S)-4-amino-1-(2-methoxybenzoyl)pyrrolidin-3-yl)((R)-3-(1-(3-methoxypropyl)-1H-benzo[d]imidazol-2-yl)piperidin-1-yl)methanone], the half-maximal inhibitory concentration (IC50) is greater than 1 µM.
Turning to `COCCCn1c([C@@H]2CCCN(C(=O)[C@@H]3CN(C(=O)Nc4ccc(Cl)cc4)C[C@H]3N)C2)nc2ccccc21` [Compound 388, (3S,4R)-3-amino-N-(4-chlorophenyl)-4-((R)-3-(1-(3-methoxypropyl)-1H-benzo[d]imidazol-2-yl)piperidine-l-carbonyl)pyrrolidine-1-carboxamide], the IC50 was greater than 1 µM.
Consider `COCCCn1c([C@@H]2CCCN(C(=O)[C@@H]3CN(C(=O)Nc4ccccc4Cl)C[C@H]3N)C2)nc2ccccc21` [Compound 389, (3S,4R)-3-amino-N-(2-chlorophenyl)-4-((R)-3-(1-(3-methoxypropyl)-1H-benzo[d]imidazol-2-yl)piperidine-1-carbonyl)pyrrolidine-1-carboxamide], for which the IC50 was greater than 1 µM.
Take `COCCCn1c([C@@H]2CCCN(C(=O)[C@@H]3CN(S(=O)(=O)c4ccc(C#N)cc4Cl)C[C@H]3N)C2)nc2ccccc21` [Compound 391, 4-((3S,4R)-3-amino-4-((R)-3-(1-(3-methoxypropyl)-1H-benzo[d]imidazol-2-yl)piperidine-1-carbonyl)pyrrolidin-1-ylsulfonyl)-3-chlorobenzonitrile]: the IC50 is greater than 1 µM.
On the same count and under the same terms, the result for `COCCCn1c([C@@H]2CCCN(C(=O)[C@@H]3CN(S(=O)(=O)c4cccc5c4ccn5C)C[C@H]3N)C2)nc2ccccc21` [Compound 392, ((3R,4S)-4-amino-1-(1-methyl-1H-indol-4-ylsulfonyl)pyrrolidin-3-yl)((R)-3-(1-(3-methoxypropyl)-1H-benzo[d]imidazol-2-yl)piperidin-1-yl)methanone] reads greater than 1 µM; that for `COCCCn1c([C@@H]2CCCN(C(=O)[C@@H]3CN(C(=O)c4cccc(F)c4)C[C@H]3N)C2)nc2ccccc21` [Compound 393, ((3R,4S)-4-amino-1-(3-fluorobenzoyl)pyrrolidin-3-yl)((R)-3-(1-(3-methoxypropyl)-1H-benzo[d]imidazol-2-yl)piperidin-1-yl)methanone], greater than 1 µM; that for `COCCCn1c([C@@H]2CCCN(C(=O)[C@@H]3CN(C(=O)c4ccc(OC)cc4)C[C@H]3N)C2)nc2ccccc21` [Compound 394, ((3R,4S)-4-amino-1-(4-methoxybenzoyl)pyrrolidin-3-yl)((R)-3-(1-(3-methoxypropyl)-1H-benzo[d]imidazol-2-yl)piperidin-1-yl)methanone], greater than 1 µM.
Still for that read-out and setting: the result for `COCCCn1c([C@@H]2CCCN(C(=O)[C@@H]3CN(C(=O)C4CCCC4)C[C@H]3N)C2)nc2ccccc21` [Compound 395, ((3R,4S)-4-amino-1-(cyclopentanecarbonyl)pyrrolidin-3-yl)((R)-3-(1-(3-methoxypropyl)-1H-benzo[d]imidazol-2-yl)piperidin-1-yl)methanone] reads greater than 1 µM.
For the compound `COCCCn1c([C@@H]2CCCN(C(=O)[C@@H]3CN(C(=O)C(C)C)C[C@H]3N)C2)nc2ccccc21` [Compound 396, 1-((3S,4R)-3-amino-4-((R)-3-(1-(3-methoxypropyl)-1H-benzo[d]imidazol-2-yl)piperidine-1-carbonyl)pyrrolidin-1-yl)-2-methylpropan-1-one], the IC50 was greater than 1 µM.
Consider `COCCCn1c([C@@H]2CCCN(C(=O)[C@@H]3CN(C(=O)CC4CCCCC4)C[C@H]3N)C2)nc2ccccc21` [Compound 397, l-((3S,4R)-3-amino-4-((R)-3-(1-(3-methoxypropyl)-1H-benzo[d]imidazol-2-yl)piperidine-1-carbonyl)pyrrolidin-1-yl)-2-cyclohexylethanone], for which the IC50 is greater than 1 µM.
Turning to `COCCCn1c([C@@H]2CCCN(C(=O)[C@@H]3CN(C(=O)c4ccccc4Cl)C[C@H]3N)C2)nc2ccccc21` [Compound 398, ((3R,4S)-4-amino-1-(2-chlorobenzoyl)pyrrolidin-3-yl)((R)-3-(1-(3-methoxypropyl)-1H-benzo[d]imidazol-2-yl)piperidin-1-yl)methanone], the IC50 was greater than 1 µM.
`COCCCn1c([C@@H]2CCCN(C(=O)[C@@H]3CN(C(=O)NC4CCCC4)C[C@H]3N)C2)nc2ccccc21` [Compound 399, (3S,4R)-3-amino-N-cyclopentyl-4-((R)-3-(1-(3-methoxypropyl)-1H-benzo[d]imidazol-2-yl)piperidine-1-carbonyl)pyrrolidine-1-carboxamide]: the IC50 was greater than 1 µM.
Regarding `COCCCn1c([C@@H]2CCCN(C(=O)[C@@H]3CN(C(=O)Nc4ccccc4OC)C[C@H]3N)C2)nc2ccccc21` [Compound 400, (3S,4R)-3-amino-N-(2-methoxyphenyl)-4-((R)-3-(1-(3-methoxypropyl)-1H-benzo[d]imidazol-2-yl)piperidine-1-carbonyl)pyrrolidine-1-carboxamide], the IC50 is greater than 1 µM.
On to `COCCCn1c([C@@H]2CCCN(C(=O)[C@@H]3CN(S(=O)(=O)c4cc(Br)ccc4OC)C[C@H]3N)C2)nc2ccccc21` [Compound 401, ((3R,4S)-4-amino-1-(5-bromo-2-methoxyphenylsulfonyl)pyrrolidin-3-yl)((R)-3-(1-(3-methoxypropyl)-1H-benzo[d]imidazol-2-yl)piperidin-l-yl)methanone], for which the IC50 was greater than 1 µM.
On to `COCCCn1c([C@@H]2CCCN(C(=O)[C@@H]3CN(S(=O)(=O)c4ccccc4C(F)(F)F)C[C@H]3N)C2)nc2ccccc21` [Compound 402, ((3R,4S)-4-amino-1-(2-(trifluoromethyl)phenylsulfonyl)pyrrolidin-3-yl)((R)-3-(1-(3-methoxypropyl)-1H-benzo[d]imidazol-2-yl)piperidin-1-yl)methanone], for which the IC50 is greater than 1 µM.
Consider `COCCCn1c([C@@H]2CCCN(C(=O)[C@@H]3CN(S(=O)(=O)c4cc(C)ccc4C#N)C[C@H]3N)C2)nc2ccccc21` [Compound 403, 2-((3S,4R)-3-amino-4-((R)-3-(1-(3-methoxypropyl)-1H-benzo[d]imidazol-2-yl)piperidine-1-carbonyl)pyrrolidin-1-ylsulfonyl)-4-methylbenzonitrile], for which the IC50 is greater than 1 µM.
Turning to `COCCCn1c([C@@H]2CCCN(C(=O)[C@@H]3CN(C(=O)Nc4ccccc4)C[C@H]3N)C2)nc2ccccc21` [Compound 404, (3S,4R)-3-amino-4-((R)-3-(1-(3-methoxypropyl)-1H-benzo[d]imidazol-2-yl)piperidine-1-carbonyl)-N-phenylpyrrolidine-1-carboxamide], the IC50 is greater than 1 µM.
Take `COCCCn1c([C@@H]2CCCN(C(=O)[C@@H]3CN(C(=O)C4CCCCC4)C[C@H]3N)C2)nc2ccccc21` [Compound 405, ((3R,4S)-4-amino-1-(cyclohexanecarbonyl)pyrrolidin-3-yl)((R)-3-(1-(3-methoxypropyl)-1H-benzo[d]imidazol-2-yl)piperidin-1-yl)methanone]: the IC50 was greater than 1 µM.
The same measure, in the same setting: the value for `COCCCn1c([C@@H]2CCCN(C(=O)[C@@H]3CN(C(=O)c4cc5ccccc5o4)C[C@H]3N)C2)nc2ccccc21` [Compound 406, ((3R,4S)-4-amino-1-(benzofuran-2-carbonyl)pyrrolidin-3-yl)((R)-3-(1-(3-methoxypropyl)-1H-benzo[d]imidazol-2-yl)piperidin-1-yl)methanone] was greater than 1 µM.

As a reminder, the IC50 is the concentration needed to halve the response being measured.
